For orientation: IC50 means the point on the concentration scale where inhibition reaches its midpoint. As a reminder, the Ki is a measure of affinity in units of concentration, obtained from inhibition or displacement.

Test [1] concerns the target T1, human recombinant AKR1B1 (Homo sapiens, UniProt P15121).
T1 construct: made in house
The test can be described thus: AKR1B1 activity assay (NADPH oxidation at 340 nm), dose-dependent inhibition, IC50. The format is biochemical. How it is done:
One unit of enzyme activity is the amount of enzyme that catalyzes the conversion of 1 µmol of substrate/min in the above assay conditions.
The human recombinant AKR1B1 was expressed and purified to electrophoretic homogeneity, as previously described. […] The purified enzyme was stored at −80 °C in a 10 mM sodium phosphate buffer pH 7.0 containing 2 mM DTT and 30% (w/v) glycerol. Before use, AKR1B1 was extensively dialyzed against 10 mM of a sodium phosphate buffer pH 7.0.

In test [2] the target is T1, human recombinant AKR1B1. Briefly: Steady state inhibition kinetic analysis (Hanes-Woolf and secondary plots). Type of test: biochemical. The settings on record: for Ki’ (appK’i, ESI complex dissociation constant) / Ki: mean ± SD; for Ki: read-out: Ki (appKi, EI complex dissociation constant). How it is done: The AKR1B1 activity was determined at 37 °C, as previously described, monitoring the decrease in absorbance at 340 nm linked to NADPH oxidation (ε340 = 6.22 mM^−1.cm^−1) using a Biochrom Libra S60 spectrophotometer. The standard assay mixture (0.7 mL) contained in a 0.25 M sodium phosphate buffer pH 6.8, 0.18 mM NADPH, 0.4 M ammonium sulfate, 0.5 mM EDTA, and 4.7 mM GAL. One unit of enzyme activity is the amount of enzyme that catalyzes the conversion of 1 µmol of substrate/min in the above assay conditions.
The kinetic analysis of the experimental rate measurements with different substrates (S) in the presence of inhibitors (I) was performed on the classical inhibition model of action. Here, (I) is considered to intervene into a steady state condition of the reaction, being free to interact with the free enzyme (E), the ES complex or with both, through a rapid equilibrium. Data were analyzed by Hanes-Woolf plots. The apparent dissociation constants ^appKi’ (for the ESI complex) and ^appKi (for the EI complex) were determined from secondary plots of 1/^appVmax and ^appKM/^appVmax as a function of the inhibitor concentration, respectively.

The subject of a further test is AKR1B1. To be noted: known inhibitor co-crystallized with AKR1B1, PDB code 4IGS; cited from earlier work.
Setting [3] is: 8 mM L-idose, 0.03 mM HNE, 0.07 mM GSHNE.

The structures appear in SMILES notation. Where two headings read alike, the source gives them in different places.

Take `O=C(O[C@@H]1Cc2c(O)cc(O)cc2O[C@@H]1c1cc(O)c(O)c(O)c1)c1cc(O)c(O)c(O)c1` [EGCG, epigallocatechin gallate]: the “residual activity for HNE reduction, of activity in the absence of inhibitor” value at human recombinant AKR1B1 [1] (0.03 mM HNE, at EGCG concentrations equal to its IC50 for L-idose and GSHNE ([…] and […])) was 80–90%. Also, the “ARDI action (differential inhibition of L-idose and GSHNE reduction with respect to HNE)” value on human recombinant AKR1B1 [1] (setting [3]) is given as “comparable significant (p < 0.0001) ARDI action”. For the same compound, the figures for the “type (model) of inhibition” value at human recombinant AKR1B1 [2] (substrate GSHNE), at human recombinant AKR1B1 [2] (substrate HNE) and at human recombinant AKR1B1 [2] (substrate L-idose) were “apparently purely non-competitive type of inhibition”, “typical uncompetitive model of action” and “mixed type of inhibition”, respectively. For the same compound, the “Ki’ (appK’i, ESI complex dissociation constant)” value on human recombinant AKR1B1 [2] (substrate GSHNE) is given as 144 ± 22 µM; on human recombinant AKR1B1 [2] (substrate HNE), 116 ± 11 µM; on human recombinant AKR1B1 [2] (substrate L-idose), 61 ± 9 µM.

As to `Oc1c(F)c(F)c(-c2c(F)c(F)c(O)c(F)c2F)c(F)c1F` [JF0064], the “activity as AKR1B1 inhibitor” value in the test with AKR1B1 is “very active at sub micromolar levels”.

`Oc1cc(O)c2c(c1)O[C@H](c1cc(O)c(O)c(O)c1)[C@H](O)C2` [EGC, epigallocatechin]: the “ARDI action (differential inhibition of L-idose and GSHNE reduction with respect to HNE)” value on human recombinant AKR1B1 [1] (setting [3]) is recorded as “completely ineffective as ARDI”. Also, at human recombinant AKR1B1 [1] (read-out: IC50 values, unaffected by the nature of the substrate), the IC50 was in the range of 500 to 700 µM. Further, on human recombinant AKR1B1 [2] (substrate GSHNE), the “type (model) of inhibition” value is recorded as “competitive inhibitor” and the Ki turned out to be 553 ± 87 µM. On human recombinant AKR1B1 [2] (substrate HNE), the “Ki/Ki’” value is on record as 2.5; the “Ki’ (appK’i, ESI complex dissociation constant)” value turned out to be 686 ± 63 µM; the Ki turned out to be 1680 ± 289 µM. In addition, at human recombinant AKR1B1 [2] (substrate L-idose), the “Ki/Ki’” value is on record as 2.5 and the “Ki’ (appK’i, ESI complex dissociation constant)” value came out at 496 ± 35 µM.

Turning to `O=C(O)c1cc(O)c(O)c(O)c1` [GA, gallic acid], the “ARDI action (differential inhibition of L-idose and GSHNE reduction with respect to HNE)” value on human recombinant AKR1B1 [1] (setting [3]) is listed as “still able to act as an ARDI”. Further, the IC50 on human recombinant AKR1B1 [1] (IC50, GSHNE reduction, 0.07 mM GSHNE, 8 mU AKR1B1, 37 °C, pH 6.8) was 2500 µM; at human recombinant AKR1B1 [1] (IC50, HNE reduction, 0.03 mM HNE, 8 mU AKR1B1, 37 °C, pH 6.8), 586 µM; at human recombinant AKR1B1 [1] (IC50, L-idose reduction, 8 mM L-idose, 8 mU AKR1B1, 37 °C, pH 6.8), 196 µM. The “type (model) of inhibition” value on human recombinant AKR1B1 [2] (substrate GSHNE), on human recombinant AKR1B1 [2] (substrate HNE) and at human recombinant AKR1B1 [2] (substrate L-idose) was “apparent uncompetitive model of action” in each case. For the same compound, the “Ki’ (appK’i, ESI complex dissociation constant)” value is listed as 793 ± 102 µM at human recombinant AKR1B1 [2] (substrate GSHNE), 253 ± 23 µM at human recombinant AKR1B1 [2] (substrate HNE) and 103 ± 7 µM on human recombinant AKR1B1 [2] (substrate L-idose).

The record behind these values is PMC7407822, “Aldose Reductase Differential Inhibitors in Green Tea” (Biomolecules, 2020).
